Experimental data from patent US6235777A, “Benzenesulfonamide compounds” (Ono Pharmaceutical Co., Ltd., priority 1997, dated 2001).

Assays:
mouse EP1 = target: T1, mouse EP1 (Mus musculus, UniProt P35375); experiment: Binding assay using expression cell of prostanoid receptor subtype (EP1; competition of specific 3H-PGE2 binding to CHO cell membrane fraction); conditions: Table 1, 3H-PGE2 2.5 nM, 1 hour, room temperature, pH6.0, read-out: dissociation constant to receptor subtype, Ki (EP1), present invention compounds
T1 construct: expressed in transfected cells; host or cells: CHO
T1 sequence (P35375 1-405): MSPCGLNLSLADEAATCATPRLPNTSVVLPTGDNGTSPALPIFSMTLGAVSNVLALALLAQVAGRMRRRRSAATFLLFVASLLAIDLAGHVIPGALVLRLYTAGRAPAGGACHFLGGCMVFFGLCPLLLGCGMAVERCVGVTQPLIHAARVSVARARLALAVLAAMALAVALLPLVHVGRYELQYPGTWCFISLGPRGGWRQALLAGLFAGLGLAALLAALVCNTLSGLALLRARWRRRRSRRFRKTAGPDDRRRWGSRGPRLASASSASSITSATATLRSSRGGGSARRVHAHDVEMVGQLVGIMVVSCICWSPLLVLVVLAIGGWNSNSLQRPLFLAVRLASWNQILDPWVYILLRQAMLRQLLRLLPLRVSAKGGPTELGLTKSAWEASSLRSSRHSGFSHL
Procedure: (§1) (i) Binding Assay Using Expression Cell of Prostanoid Receptor Subtype
(§2) The standard assay mixture contained membrane fraction (0.5 mg/ml), ^3 H-PGE2 in a final volume of 200 microliter was incubated for 1 hour at room temperature. The reaction was terminated by addition of 3 ml of ice-cold buffer. The mixture was rapidly filtered through a glass filter (GF/B). The radioactivity associated with the filter was measured by liquid scintillation counting.
(§3) Non-specific binding was calculated as the binding in the presence of an excess (2.5 microM) of unlabeled PGE2. […] The following buffer was used in all reaction. Buffer:potassium phosphate (pH6.0, 10 mM), EDTA (1 mM), MgCl2 (10 mM), NaCl (0.1M).
(§4) The dissociation constant Ki (microM) of each compound was calculated by the following equation.

mouse EP3 = target: T2, mouse EP3 (Mus musculus, UniProt P30557); experiment: Binding assay using expression cell of prostanoid receptor subtype (EP3; competition of specific 3H-PGE2 binding to CHO cell membrane fraction); conditions: Table 1, 3H-PGE2 2.5 nM, 1 hour, room temperature, pH6.0, read-out: dissociation constant to receptor subtype, Ki (EP3), present invention compounds
T2 construct: expressed in transfected cells; host or cells: CHO
T2 sequence (P30557 1-365): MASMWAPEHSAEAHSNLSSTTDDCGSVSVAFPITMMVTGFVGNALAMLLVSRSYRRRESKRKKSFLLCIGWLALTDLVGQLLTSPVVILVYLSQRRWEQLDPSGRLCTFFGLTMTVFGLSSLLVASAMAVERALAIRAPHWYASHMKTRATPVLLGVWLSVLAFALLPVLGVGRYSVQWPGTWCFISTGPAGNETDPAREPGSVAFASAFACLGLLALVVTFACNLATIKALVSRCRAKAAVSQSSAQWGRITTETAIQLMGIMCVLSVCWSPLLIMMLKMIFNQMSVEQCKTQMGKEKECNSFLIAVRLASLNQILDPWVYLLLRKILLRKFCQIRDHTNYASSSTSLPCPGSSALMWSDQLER
Procedure: as §1, §2, §3, §4

Molecule Cc1cc(Cl)ccc1S(=O)(=O)NC[C@H]1C2CCC(CC2)[C@@H]1/C=C\CCCC(=O)O [Example 2(c), 6-[(2S, 3S)-3-(4-chloro-2-methylphenylsulfonylaminomethyl)bicyclo[2.2. 2]octan-2-yl]-5Z-hexenoic acid] has a Ki (mouse EP1) of 0.0018 µM and a Ki (mouse EP3) of 0.2 µM.
For Cc1cc(Cl)cc(Cl)c1S(=O)(=O)NC[C@H]1C2CCC(CC2)[C@H]1/C=C\CCCC(=O)O [Example 2(k), 6-[(2S, 3S)-3-(2,4-dichloro-6-methylphenylsulfonylaminomethyl)bicyclo[2.2. 2]octan-2-yl]-5Z-hexenoic acid], the Ki (mouse EP1) was 0.0024 µM and the Ki (mouse EP3) was 1.4 µM.
Cc1cc(Br)ccc1S(=O)(=O)NC[C@H]1C2CCC(CC2)[C@H]1/C=C\CCCC(=O)O [Example 2(d), 6-[(2S, 3S)-3-(4-bromo-2-methylphenylsulfonylaminomethyl)bicyclo[2.2. 2]octan-2-yl]-5Z-hexenoic acid] showed a Ki (mouse EP1) of 0.0014 µM and a Ki (mouse EP3) of 0.085 µM.
O=C(O)CCC/C=C\[C@@H]1[C@@H](CNS(=O)(=O)c2ccc(Cl)cc2Cl)[C@@H]2C=C[C@H]1CC2 [Example 6(a), 6-[(1S, 4R, 5S, 6S)-6-(2,4-dichlorophenylsulfonylaminomethyl)bicyclo[2.2. 2]-oct-2-en-5-yl]-5Z-hexenoic acid] showed a Ki (mouse EP1) of 0.0039 µM and a Ki (mouse EP3) of 0.37 µM.
With O=C(O)CCC/C=C\[C@H]1CCCC[C@@H]1CNS(=O)(=O)c1c(Cl)cc(Cl)cc1Cl [Example 3(e), 6-[(1R, 2S)-2-(2,4,6-trichlorophenylsulfonylaminomethyl)cyclohexyl]-5Z-hexenoic acid] the Ki (mouse EP1) was 0.0084 µM and the Ki (mouse EP3) was 0.11 µM.
With Cc1cc(Cl)ccc1S(=O)(=O)NC[C@H]1[C@H]2CC[C@H](C2)[C@H]1/C=C\CCCC(=O)O [Example 5(e), 6-[(1R, 2S, 3S, 4S)-3-(4-chloro-2-methylphenylsulfonylaminomethyl)bicyclo[2.2. 1]heptan-2-yl]-5Z-hexenoic acid] the Ki (mouse EP1) was 0.0072 µM and the Ki (mouse EP3) was 0.2 µM.
For O=C(O)CCC/C=C\[C@@H]1[C@@H]2CC[C@@H](C2)[C@@H]1CNS(=O)(=O)c1ccc(Cl)cc1F [Example 5(d), 6-[(1R, 2S, 3S, 4S)-3-(4-chloro-2-fluorophenylsulfonylaminomethyl)bicyclo[2.2. 1]heptan-2-yl]-5Z-hexenoic acid], the Ki (mouse EP1) was 0.023 µM and the Ki (mouse EP3) was 1.2 µM.
Cc1cc(Cl)ccc1S(=O)(=O)NC[C@H]1CC=CC[C@@H]1/C=C\CCCC(=O)O [Example 4(b), 6-[(4R, 5S)-5-(4-chloro-2-methylphenylsulfonylaminomethyl)cyclohexen-4-yl]-5Z-hexenoic acid] was tested, and the Ki (mouse EP1) was 0.017 µM and the Ki (mouse EP3) was 0.052 µM.
Cc1cc(Br)ccc1S(=O)(=O)NC[C@H]1CC=CC[C@@H]1/C=C\CCCC(=O)O [Example 4(f), 6-[(4R, 5S)-5-(4-bromo-2-methylphenylsulfonylaminomethyl)cyclohexen-4-yl]-5Z-hexenoic acid] was tested, and the Ki (mouse EP1) was 0.0057 µM and the Ki (mouse EP3) was 0.012 µM.
Molecule O=C(O)CCC/C=C\[C@@H]1[C@@H]2CC[C@@H](C2)[C@@H]1CNS(=O)(=O)c1ccc(Cl)cc1Cl [Example 5(a), 6-[(1R, 2S, 3S, 4S)-3-(2,4-dichlorophenylsulfonylaminomethyl)bicyclo[2.2. 1]-heptan-2-yl]-5Z-hexenoic acid] has a Ki (mouse EP1) of 0.012 µM and a Ki (mouse EP3) of 0.28 µM.
With O=C(O)CCC/C=C\[C@@H]1C2CCC(CC2)[C@@H]1CNS(=O)(=O)c1c(Cl)cc(Cl)cc1Cl [Example 2(g), 6-[(2S, 3S)-3-(2,4,6-trichlorophenylsulfonylaminomethyl)bicyclo[2.2. 2]octan-2-yl]-5Z-hexenoic acid] the Ki (mouse EP1) was 0.0034 µM and the Ki (mouse EP3) was 0.95 µM.
With Cc1cc(Cl)ccc1S(=O)(=O)NC[C@H]1CCCC[C@@H]1/C=C\CCCC(=O)O [Example 3(f), 6-[(1R, 2S)-2-(4-chloro-2-methylphenylsulfonylaminomethyl)cyclohexyl]-5Z-hexenoic acid] the Ki (mouse EP1) was 0.0011 µM and the Ki (mouse EP3) was 0.041 µM.
With O=C(O)CCC/C=C\[C@@H]1[C@@H](CNS(=O)(=O)c2ccc(Cl)cc2F)[C@H]2C=C[C@@H]1CC2 [Example 7(d), 6-[(1R, 4S, 5S, 6S)-6-(4-chloro-2-fluorophenylsulfonylaminomethyl)bicyclo[2.2. 2]oct-2-en-5-yl]-5Z-hexenoic acid] the Ki (mouse EP1) was 0.0039 µM and the Ki (mouse EP3) was 1.4 µM.
Molecule O=C(O)CCC/C=C\[C@@H]1C2CCC(CC2)[C@@H]1CNS(=O)(=O)c1ccc(Cl)cc1Cl [Example 2, 6-[(2S, 3S)-3-(2,4-dichlorophenylsulfonylaminomethyl)bicyclo[2.2. 2]octan-2-yl]-5Z-hexenoic acid] has a Ki (mouse EP1) of 0.0005 µM and a Ki (mouse EP3) of 0.12 µM.
In the case of O=C(O)CCC/C=C\[C@@H]1[C@@H](CNS(=O)(=O)c2c(Cl)cc(Cl)cc2Cl)[C@H]2C=C[C@@H]1CC2 [Example 7(f), 6-[(1R, 4S, 5S, 6S)-6-(2,4,6-trichlorophenylsulfonylaminomethyl)bicyclo[2.2. 2]oct-2-en-5-yl]-5Z-hexenoic acid], the Ki (mouse EP1) is reported as 0.0072 µM and the Ki (mouse EP3) is reported as 1.5 µM.
Work on O=C(O)CCC/C=C\[C@H]1CC=CC[C@@H]1CNS(=O)(=O)c1ccc(Cl)cc1F [Example 4(c), 6-[(4R, 5S)-5-(4-chloro-2-fluorophenylsulfonylaminomethyl)cyclohexen-4-yl]-5Z-hexenoic acid] yielded a Ki (mouse EP1) of 0.039 µM and a Ki (mouse EP3) of 0.18 µM.
Work on O=C(O)CCC/C=C\[C@H]1CCCC[C@@H]1CNS(=O)(=O)c1ccc(Cl)cc1Cl [Example 3(a), 6-[(1R, 2S)-2-(2,4-dichlorophenylsulfonylaminomethyl)cyclohexyl]-5Z-hexenoic acid] yielded a Ki (mouse EP1) of 0.0031 µM and a Ki (mouse EP3) of 0.018 µM.
Cc1cc(Cl)cc(C)c1S(=O)(=O)NC[C@@H]1[C@@H](/C=C\CCCC(=O)O)[C@H]2C=C[C@@H]1CC2 [Example 6(e), 6-[(1S, 4R, 5S, 6S)-6-(4-chloro-2,6-dimethylphenylsulfonylaminomethyl)bicyclo[2.2. 2]oct-2-en-5-yl]-5Z-hexenoic acid] gave a Ki (mouse EP1) of 0.0042 µM and a Ki (mouse EP3) of 1.1 µM.
Cc1cc(Cl)ccc1S(=O)(=O)NC[C@H]1C2CCC(CC2)[C@H]1/C=C/CCCC(=O)O [Example 2(n), 6-[(2S, 3S)-3-(4-chloro-2-methylphenylsulfonylaminomethyl)bicyclo[2.2. 2]-octan-2-yl]-5E-hexenoic acid] was tested, and the Ki (mouse EP1) was 0.0051 µM and the Ki (mouse EP3) was 1.9 µM.
